Data reported in ChEMBL document CHEMBL1201862, “PubChem BioAssay data set” (2004).
Active and inactive are the calls of the source.

Key:
[1] = molecular target: T1, Induced myeloid leukemia cell differentiation protein Mcl-1 (Homo sapiens, UniProt Q07820); assay type: functional
[2] = molecular target: Cytochrome P450 3A4 (Homo sapiens, UniProt P08684);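 note: CYP3A4 tested as one member of a cytochrome P450 panel screen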
[3] = molecular target: Bcl-2-like protein 1 (Homo sapiens, UniProt Q07817); assay: blockers of BCLXL peptide binding – biochemical, fluorescence polarization, 1536-well, selectivity assay for MCL1 inhibitor project, dose response (AID 2218)
[4] = molecular target: T2, Cytochrome P450 1A2 (Homo sapiens, UniProt P05177);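 note: PubChem cytochrome P450 panel assay, CYP1A2 panel member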
T2 sequence (P05177 whole entry): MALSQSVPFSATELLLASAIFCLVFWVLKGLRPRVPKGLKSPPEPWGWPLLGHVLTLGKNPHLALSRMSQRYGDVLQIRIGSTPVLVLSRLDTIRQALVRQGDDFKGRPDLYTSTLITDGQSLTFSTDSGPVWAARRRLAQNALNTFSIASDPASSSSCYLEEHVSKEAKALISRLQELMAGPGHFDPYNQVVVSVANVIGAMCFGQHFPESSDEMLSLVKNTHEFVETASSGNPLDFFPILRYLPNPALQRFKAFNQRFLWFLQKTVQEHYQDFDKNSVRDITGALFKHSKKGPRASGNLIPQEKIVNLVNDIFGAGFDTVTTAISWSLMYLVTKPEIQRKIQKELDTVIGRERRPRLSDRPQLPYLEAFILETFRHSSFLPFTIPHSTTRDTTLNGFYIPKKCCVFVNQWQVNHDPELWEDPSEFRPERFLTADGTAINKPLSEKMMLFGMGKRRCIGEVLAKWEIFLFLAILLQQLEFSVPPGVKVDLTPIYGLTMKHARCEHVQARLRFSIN

[5] = molecular target: T1, Induced myeloid leukemia cell differentiation protein Mcl-1; assay: blockers of MCL1 binding to BIM peptide – biochemical, fluorescence polarization, BIM-BH3 peptide, 1536-well, dose response (AID 2217)
[6] = molecular target: Cytochrome P450 2D6 (Homo sapiens, UniProt P10635);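 note: CYP2D6 member of a cytochrome P450 panel assay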
[7] = molecular target: Cytochrome P450 2C19 (Homo sapiens, UniProt P33261); assay: Cytochrome panel assay with activity outcomes. Panel member name: p450-cyp2c19 Compounds with AC50 equal or less than 10 uM are considered active; assay type: functional; conditions: read-out: AC50
[8] = molecular target: T3, Neuropeptide Y receptor type 2 (Homo sapiens, UniProt P49146); assay type: functional, cell-based;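 note: HEK293 cells expressing the receptor and a CNG channel; stimulus was NPY near EC95 followed by isoproterenol to raise cAMP; antagonist potency measured as restoring cAMP signal that NPY suppresses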
T3 sequence (P49146 whole entry): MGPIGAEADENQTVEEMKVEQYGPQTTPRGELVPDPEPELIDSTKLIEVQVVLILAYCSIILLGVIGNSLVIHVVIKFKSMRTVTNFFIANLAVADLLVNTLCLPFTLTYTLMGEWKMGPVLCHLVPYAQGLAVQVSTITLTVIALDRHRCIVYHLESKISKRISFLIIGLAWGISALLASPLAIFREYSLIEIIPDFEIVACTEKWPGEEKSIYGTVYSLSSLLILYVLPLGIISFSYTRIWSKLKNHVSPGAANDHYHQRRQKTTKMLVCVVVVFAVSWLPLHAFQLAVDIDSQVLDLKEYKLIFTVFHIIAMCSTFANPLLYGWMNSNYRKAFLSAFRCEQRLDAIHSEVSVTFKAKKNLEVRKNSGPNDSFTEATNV

[9] = molecular target: T4, Neuropeptide Y receptor type 1 (Homo sapiens, UniProt P25929); assay type: functional;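 note: HEK293 cells with a CNG channel challenged with NPY then isoproterenol; potency as antagonist that reverses NPY suppression of cAMP signal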
T4 sequence (P25929 whole entry): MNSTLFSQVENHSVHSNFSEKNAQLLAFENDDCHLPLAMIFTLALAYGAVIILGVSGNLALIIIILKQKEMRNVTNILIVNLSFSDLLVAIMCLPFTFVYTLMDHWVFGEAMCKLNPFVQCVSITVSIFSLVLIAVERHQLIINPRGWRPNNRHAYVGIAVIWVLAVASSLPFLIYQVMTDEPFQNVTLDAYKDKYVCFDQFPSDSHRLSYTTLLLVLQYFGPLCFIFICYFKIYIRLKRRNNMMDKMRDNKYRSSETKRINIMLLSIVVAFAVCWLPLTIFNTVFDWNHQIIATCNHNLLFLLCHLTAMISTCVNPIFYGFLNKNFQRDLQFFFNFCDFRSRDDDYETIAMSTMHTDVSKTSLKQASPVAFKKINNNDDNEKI

[10] = molecular target: T5, Microphthalmia-associated transcription factor (Homo sapiens, UniProt O75030); assay: reducers of TRPM1 reporter luminescence, concentration series – cell-based, SK-MEL-5, cherry-picked, set 3, MITF inhibitor project, dose response (AID 493073); assay type: functional;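 note: SK-MEL-5 melanoma cells with luciferase driven by the MITF target TRPM1 promoter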
T5 sequence (O75030 whole entry): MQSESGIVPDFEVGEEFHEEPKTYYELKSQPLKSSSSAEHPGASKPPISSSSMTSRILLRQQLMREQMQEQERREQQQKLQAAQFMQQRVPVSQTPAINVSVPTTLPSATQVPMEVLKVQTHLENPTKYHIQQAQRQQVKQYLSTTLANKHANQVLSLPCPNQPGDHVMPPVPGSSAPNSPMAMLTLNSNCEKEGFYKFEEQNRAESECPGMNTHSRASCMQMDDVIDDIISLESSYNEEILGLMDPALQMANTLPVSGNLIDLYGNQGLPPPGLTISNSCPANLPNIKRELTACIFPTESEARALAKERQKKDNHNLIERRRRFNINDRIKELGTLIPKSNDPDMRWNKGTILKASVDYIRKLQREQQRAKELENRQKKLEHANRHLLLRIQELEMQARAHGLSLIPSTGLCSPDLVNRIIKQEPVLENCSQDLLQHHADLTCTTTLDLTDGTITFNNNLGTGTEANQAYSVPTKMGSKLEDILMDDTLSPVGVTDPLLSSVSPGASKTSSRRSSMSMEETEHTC

[11] = cells
[12] = NIH3T3 cell viability loss – ATP luminescence, mouse fibroblasts, counter-screen, dose response (AID 2010); assay type: functional, cell-based;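 note: cells exposed to compound for about 90 hours before reading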
[13] = Trypanosoma cruzi growth suppression in host cells – NIH3T3 host cells, beta-gal luminescence, confirmation (AID 2044); assay type: functional, cell-based;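 note: intracellular parasites grown in NIH/3T3 mouse fibroblasts as host cells; luminescent beta-galactosidase reporter signal from transgenic T. cruzi replicating inside host cells; inhibitors lower the luminescence signal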
[14] = molecular target: T6, RNA-binding protein pos-1 (Caenorhabditis elegans, UniProt G5EF15); assay: disruptors of C. elegans POS-1 RNA interaction – biochemical, fluorescence polarization, dose response (AID 1964);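 note: purified POS-1 fused to maltose binding protein made in E. coli; potency of compounds blocking POS-1 binding to fluorescent RNA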
T6 sequence (G5EF15 whole entry): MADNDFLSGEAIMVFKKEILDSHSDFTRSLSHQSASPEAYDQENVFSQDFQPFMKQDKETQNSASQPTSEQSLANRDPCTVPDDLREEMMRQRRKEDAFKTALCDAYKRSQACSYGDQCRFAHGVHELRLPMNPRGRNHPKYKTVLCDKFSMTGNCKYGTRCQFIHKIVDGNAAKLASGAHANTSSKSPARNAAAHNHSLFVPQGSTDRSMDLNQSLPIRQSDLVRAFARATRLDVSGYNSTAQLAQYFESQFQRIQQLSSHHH

[15] = molecular target: T7, Zinc finger protein mex-5 (Caenorhabditis elegans, UniProt Q9XUB2); assay: potency of MEX-5 RNA-binding blockers – biochemical, C. elegans, fluorescence polarization, dose response (AID 1960)
T7 sequence (Q9XUB2 whole entry): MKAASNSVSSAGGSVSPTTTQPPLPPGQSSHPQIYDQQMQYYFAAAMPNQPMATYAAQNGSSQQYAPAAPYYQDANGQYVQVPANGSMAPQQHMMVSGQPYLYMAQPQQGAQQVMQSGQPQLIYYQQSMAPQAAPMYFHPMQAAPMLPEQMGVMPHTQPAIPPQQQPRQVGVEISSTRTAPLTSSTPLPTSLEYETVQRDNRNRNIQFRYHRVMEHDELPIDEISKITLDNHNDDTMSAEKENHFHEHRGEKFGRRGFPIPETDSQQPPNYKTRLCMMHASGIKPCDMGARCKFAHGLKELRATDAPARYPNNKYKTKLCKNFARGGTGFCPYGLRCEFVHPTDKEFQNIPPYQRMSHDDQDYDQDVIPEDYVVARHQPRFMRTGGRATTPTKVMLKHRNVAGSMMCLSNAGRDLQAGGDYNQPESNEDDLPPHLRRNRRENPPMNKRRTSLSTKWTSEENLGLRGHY

[16] = molecular target: Genome polyprotein (dengue virus type 2, UniProt P29990); assay: flavivirus cap methylation enzyme inhibition – biochemical, confirmation dose response, primary screen (AID 588689); assay type: functional
[17] = molecular target: Lytic switch protein BZLF1 (Epstein-Barr virus (strain B95-8) (HHV-4) (Human herpesvirus 4), UniProt P03206); assay: inhibition of BZLF1 ZTA DNA binding – biochemical, fluorescence polarization, Epstein-Barr virus, 1536-well, counter-screen for EBNA-1 inhibitor project, dose response (AID 2377); parameters: species or system human gammaherpesvirus 4;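 note: fluorescence polarization of Cy5-labelled ZRE DNA probe bound by purified Zta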
[18] = molecular target: Epstein-Barr nuclear antigen 1 (Epstein-Barr virus (strain B95-8) (HHV-4) (Human herpesvirus 4), UniProt P03211); assay: inhibition of EBV nuclear antigen 1 DNA binding – biochemical, fluorescence polarization, 1536-well, dose response (AID 2381); parameters: species or system human gammaherpesvirus 4;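 note: fluorescence polarization of a Cy5 DNA probe bound by EBNA-1 protein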
[19] = tested on: BJ; assay: BJ-TERT fibroblast viability loss – cell-based, RAS-independent, luminescence, dose response (AID 1933); assay type: functional; conditions: Homo sapiens
[20] = fluconazole-exposed Candida albicans growth modulators – fluorescence, retest, confirmation (AID 2467); assay type: functional, cell-based
[21] = NIH-3T3 fibroblast cytotoxicity, dose response, cytotoxicity control, cell-based, fluorescence, Alamar Blue, secondary assay (AID 2327); assay type: functional;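 note: NIH-3T3 mouse fibroblasts cultured with fluconazole at 8 µg/mL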
[22] = tested on: BJ; assay: BJ-TERT-LT-ST fibroblast viability loss – cell-based, RAS-independent, luminescence, dose response (AID 1935); assay type: functional; conditions: Homo sapiens;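 note: BJ fibroblasts immortalized with TERT plus LT and ST oncogenes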
[23] = DRD fibroblast viability loss – cell-based, non-viral oncogenic, luminescence, dose response (AID 1934); assay type: functional; conditions: Homo sapiens
[24] = tested on: BJ; assay: cells; assay type: functional, cell-based; conditions: Homo sapiens
[25] = HEK-293T viability loss after treatment – luminescence, T-cell screen hits, cytotoxicity control for TCR NF-kB inhibitor project, dose response (AID 489026); assay type: functional, cell-based;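 note: cells exposed to compound about 14 hours before the viability readout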
[26] = molecular target: Cytochrome P450 2C9 (Homo sapiens, UniProt P11712)
Chain of Cytochrome P450 2C9 (P11712 whole entry): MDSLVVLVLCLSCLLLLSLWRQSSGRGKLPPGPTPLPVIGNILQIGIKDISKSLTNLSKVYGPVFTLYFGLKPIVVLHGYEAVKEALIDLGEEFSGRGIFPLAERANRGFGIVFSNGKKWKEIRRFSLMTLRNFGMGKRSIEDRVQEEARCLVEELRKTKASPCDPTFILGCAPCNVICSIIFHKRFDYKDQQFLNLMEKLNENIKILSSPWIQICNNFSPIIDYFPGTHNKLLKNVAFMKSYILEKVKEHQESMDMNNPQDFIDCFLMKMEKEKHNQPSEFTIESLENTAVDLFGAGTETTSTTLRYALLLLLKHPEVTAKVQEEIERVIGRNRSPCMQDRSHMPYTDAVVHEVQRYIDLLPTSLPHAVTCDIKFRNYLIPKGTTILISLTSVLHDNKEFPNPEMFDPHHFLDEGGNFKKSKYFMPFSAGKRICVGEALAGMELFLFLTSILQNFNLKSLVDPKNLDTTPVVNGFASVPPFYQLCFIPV

T1 sequence (Q07820 whole entry): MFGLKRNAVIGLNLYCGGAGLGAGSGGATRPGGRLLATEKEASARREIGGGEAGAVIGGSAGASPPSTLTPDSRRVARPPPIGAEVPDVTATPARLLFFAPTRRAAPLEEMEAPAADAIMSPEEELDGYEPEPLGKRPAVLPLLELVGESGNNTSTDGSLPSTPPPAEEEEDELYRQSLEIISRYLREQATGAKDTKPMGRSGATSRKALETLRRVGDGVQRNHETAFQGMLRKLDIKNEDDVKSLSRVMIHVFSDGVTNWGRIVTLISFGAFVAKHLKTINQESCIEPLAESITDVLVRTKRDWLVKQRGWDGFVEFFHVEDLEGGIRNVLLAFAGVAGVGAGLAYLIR
Chain of Bcl-2-like protein 1 (Q07817 whole entry): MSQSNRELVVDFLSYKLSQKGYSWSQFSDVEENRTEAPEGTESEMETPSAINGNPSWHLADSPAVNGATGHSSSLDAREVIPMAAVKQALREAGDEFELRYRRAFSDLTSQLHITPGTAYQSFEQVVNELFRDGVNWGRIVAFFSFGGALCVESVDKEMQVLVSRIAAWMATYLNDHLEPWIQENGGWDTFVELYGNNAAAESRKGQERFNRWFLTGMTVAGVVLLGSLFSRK
Chain of Cytochrome P450 2D6 (P10635 whole entry): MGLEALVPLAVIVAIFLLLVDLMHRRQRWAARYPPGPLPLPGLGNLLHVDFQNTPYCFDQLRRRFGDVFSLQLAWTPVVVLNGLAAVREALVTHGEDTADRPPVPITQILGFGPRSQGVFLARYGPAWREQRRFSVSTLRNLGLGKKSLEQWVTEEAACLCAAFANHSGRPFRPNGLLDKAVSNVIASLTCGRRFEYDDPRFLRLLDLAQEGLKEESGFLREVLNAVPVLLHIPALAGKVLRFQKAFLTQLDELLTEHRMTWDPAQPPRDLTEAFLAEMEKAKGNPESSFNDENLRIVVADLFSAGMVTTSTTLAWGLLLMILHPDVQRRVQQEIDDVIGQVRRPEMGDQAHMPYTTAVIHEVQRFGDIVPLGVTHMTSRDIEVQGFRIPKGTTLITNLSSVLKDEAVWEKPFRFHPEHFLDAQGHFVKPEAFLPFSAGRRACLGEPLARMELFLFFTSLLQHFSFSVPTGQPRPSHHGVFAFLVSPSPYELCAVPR
Chain of Cytochrome P450 3A4 (P08684 whole entry): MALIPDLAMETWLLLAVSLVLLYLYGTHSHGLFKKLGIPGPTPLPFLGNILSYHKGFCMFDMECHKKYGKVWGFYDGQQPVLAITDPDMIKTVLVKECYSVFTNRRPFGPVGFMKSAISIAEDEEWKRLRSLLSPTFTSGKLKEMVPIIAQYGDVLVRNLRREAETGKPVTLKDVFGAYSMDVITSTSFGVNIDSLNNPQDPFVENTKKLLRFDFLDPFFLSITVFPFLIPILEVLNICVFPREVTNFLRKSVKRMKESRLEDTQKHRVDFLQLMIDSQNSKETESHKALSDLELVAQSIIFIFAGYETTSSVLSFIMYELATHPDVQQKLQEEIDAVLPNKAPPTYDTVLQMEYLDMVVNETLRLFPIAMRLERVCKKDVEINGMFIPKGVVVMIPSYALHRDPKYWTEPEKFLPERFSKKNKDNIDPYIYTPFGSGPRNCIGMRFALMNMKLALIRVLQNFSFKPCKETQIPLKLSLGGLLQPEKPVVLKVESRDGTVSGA
Chain of Lytic switch protein BZLF1 (P03206 whole entry): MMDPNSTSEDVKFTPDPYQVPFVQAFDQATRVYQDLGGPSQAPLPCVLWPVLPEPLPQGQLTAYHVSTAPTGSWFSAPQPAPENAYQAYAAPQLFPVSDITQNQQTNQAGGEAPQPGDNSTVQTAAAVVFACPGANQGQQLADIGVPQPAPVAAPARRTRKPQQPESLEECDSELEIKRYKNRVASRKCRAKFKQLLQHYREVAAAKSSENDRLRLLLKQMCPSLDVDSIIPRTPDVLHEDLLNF
Chain of Cytochrome P450 2C19 (P33261 whole entry): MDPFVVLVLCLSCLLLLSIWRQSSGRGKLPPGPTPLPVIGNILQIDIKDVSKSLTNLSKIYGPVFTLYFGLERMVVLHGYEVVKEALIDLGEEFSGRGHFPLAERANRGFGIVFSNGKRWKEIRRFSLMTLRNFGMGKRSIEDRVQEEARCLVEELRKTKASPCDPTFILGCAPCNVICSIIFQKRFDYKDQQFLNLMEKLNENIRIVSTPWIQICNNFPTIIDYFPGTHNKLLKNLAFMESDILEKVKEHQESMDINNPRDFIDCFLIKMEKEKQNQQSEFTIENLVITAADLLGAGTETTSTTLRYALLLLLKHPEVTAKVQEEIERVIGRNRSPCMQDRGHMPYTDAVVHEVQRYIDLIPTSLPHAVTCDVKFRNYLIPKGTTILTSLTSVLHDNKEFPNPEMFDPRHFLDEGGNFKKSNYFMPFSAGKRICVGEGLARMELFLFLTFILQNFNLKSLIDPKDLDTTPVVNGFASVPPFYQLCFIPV
Chain of Epstein-Barr nuclear antigen 1 (P03211 whole entry): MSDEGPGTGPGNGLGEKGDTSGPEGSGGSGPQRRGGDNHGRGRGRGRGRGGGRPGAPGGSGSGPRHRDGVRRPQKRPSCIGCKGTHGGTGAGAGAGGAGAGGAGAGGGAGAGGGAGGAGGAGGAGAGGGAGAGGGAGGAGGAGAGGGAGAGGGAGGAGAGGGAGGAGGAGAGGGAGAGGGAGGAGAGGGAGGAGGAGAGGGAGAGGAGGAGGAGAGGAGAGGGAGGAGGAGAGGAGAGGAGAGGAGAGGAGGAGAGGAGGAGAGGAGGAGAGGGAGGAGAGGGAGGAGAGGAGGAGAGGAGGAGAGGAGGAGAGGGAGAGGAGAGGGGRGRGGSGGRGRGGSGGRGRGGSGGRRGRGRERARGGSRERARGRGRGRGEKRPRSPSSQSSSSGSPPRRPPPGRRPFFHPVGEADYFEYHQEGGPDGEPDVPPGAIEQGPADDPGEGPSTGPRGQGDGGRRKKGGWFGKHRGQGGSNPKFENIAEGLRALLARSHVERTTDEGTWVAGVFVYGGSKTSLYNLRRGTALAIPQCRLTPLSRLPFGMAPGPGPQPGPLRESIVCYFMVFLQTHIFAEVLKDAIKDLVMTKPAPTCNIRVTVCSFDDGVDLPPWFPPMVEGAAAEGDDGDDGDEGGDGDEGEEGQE
Chain of Genome polyprotein (P29990 2492-3391 limits assumed): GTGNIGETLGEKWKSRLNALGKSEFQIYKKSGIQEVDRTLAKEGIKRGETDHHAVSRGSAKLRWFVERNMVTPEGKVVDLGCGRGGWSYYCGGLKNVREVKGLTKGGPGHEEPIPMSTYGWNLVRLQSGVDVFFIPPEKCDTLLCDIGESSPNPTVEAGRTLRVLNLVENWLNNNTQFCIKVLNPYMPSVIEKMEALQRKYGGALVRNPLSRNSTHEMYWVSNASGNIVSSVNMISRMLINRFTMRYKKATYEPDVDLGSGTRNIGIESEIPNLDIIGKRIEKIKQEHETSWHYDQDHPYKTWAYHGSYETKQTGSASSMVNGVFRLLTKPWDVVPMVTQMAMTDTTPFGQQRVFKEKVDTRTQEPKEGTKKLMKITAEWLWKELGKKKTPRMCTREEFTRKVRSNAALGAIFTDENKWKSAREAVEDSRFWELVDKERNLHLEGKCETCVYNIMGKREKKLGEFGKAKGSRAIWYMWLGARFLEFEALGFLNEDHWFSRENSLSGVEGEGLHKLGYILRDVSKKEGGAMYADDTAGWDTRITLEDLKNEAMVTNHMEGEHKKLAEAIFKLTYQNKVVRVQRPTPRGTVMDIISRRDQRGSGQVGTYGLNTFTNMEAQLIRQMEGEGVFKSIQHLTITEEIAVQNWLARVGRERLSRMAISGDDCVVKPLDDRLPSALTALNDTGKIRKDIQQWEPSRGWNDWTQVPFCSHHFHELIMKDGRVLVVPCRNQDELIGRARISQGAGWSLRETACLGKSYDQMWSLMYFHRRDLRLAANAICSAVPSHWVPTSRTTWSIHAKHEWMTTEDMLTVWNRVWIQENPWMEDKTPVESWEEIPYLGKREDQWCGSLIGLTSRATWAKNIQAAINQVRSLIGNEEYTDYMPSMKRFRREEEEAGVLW

O=C(N/N=C/c1ccncc1)c1cc([N+](=O)[O-])cc([N+](=O)[O-])c1O
IC50 [1]: 3.25 µM (active)
AC50 [2]: 1 µM (inconclusive)
IC50 [3]: > 109 µM (not active)
AC50 [4]: 5.01 µM (inconclusive)
IC50 [5]: > 36.3 µM (not active)
AC50 [6]: 14.1 µM (inconclusive)
AC50 [7]: 2.51 µM (inconclusive)

CCSc1nc2ccc(OC)cc2cc1C#N
IC50 [8]: 17.8 µM (not active)
IC50 [9]: 11.1 µM (not active)

C/C(=N/NC(=O)C(O)(c1ccccc1)c1ccccc1)c1ccc([N+](=O)[O-])o1
AC50 [10]: 9.84 µM (active)
EC50 [11]: 0.222 µM (active)
EC50 [12]: > 60 µM (not active)
EC50 [13]: < 0.1 µM (active)

Cc1nc2ccccc2c(=O)n1/N=C/c1ccc(O)c(O)c1O
EC50 [14]: 12.9 µM (active)
IC50 [3]: > 109 µM (not active)
EC50 [15]: 0.193 µM (active)
IC50 [5]: 2.07 µM (active)
IC50 [16]: > 100 µM (active)

COc1ccc2oc(C(=O)OCC(=O)Nc3ccc(NC(C)=O)cc3)c(C)c2c1
IC50 [17]: > 111 µM (not active)
IC50 [18]: 4.71 µM (active)

Cc1ccc2c(c1)sc(-c1ccc(N(C)C)cc1)[n+]2C
EC50 [19]: 3.83 µM (active)
EC50 [20]: 0.039 µM (active)
EC50 [21]: > 160 µM (inactive)
EC50 [22]: 20.9 µM (inconclusive)
EC50 [23]: 14.5 µM (active)
EC50 [11]: < 0.004 µM (active)
EC50 [24]: 0.609 µM (active)
IC50 [25]: > 80 µM (inactive)
EC50 [12]: > 60 µM (not active)
EC50 [13]: < 0.1 µM (active)

Clc1ccccc1CSc1nnc(/C=C/c2ccccc2)o1
IC50 [8]: 8.09 µM (active)
IC50 [9]: 6.96 µM (active)
AC50 [26]: 7.94 µM (inconclusive)
